Source: US20230172923A1, “METHODS OF TREATING CYTOKINE-RELATED ADVERSE EVENTS” (BRISTOL-MYERS SQUIBB COMPANY, priority 2020, published 2023)

Tests used:
Assay type in all cases: cell-based, human
[1] = test system: IL-6, IL-8, IL-1β, GM-CSF, MDC, MIP-1α, MIP-1β and TNF-α; test: LPS-induced secretion of proinflammatory cytokines from PBMCs (whole multiplex panel, result in words); conditions: pre-treatment 1 hour, 1 ng/ml LPS 18 hours
Procedure: Peripheral blood mononuclear cells (PBMCs) from healthy volunteers were seeded at a concentration of 2×10^6 cells/ml and treated with the indicated concentrations of IMiD compounds or control DMSO (0.25%) for 1 hour, before stimulation with 1 ng/ml LPS. After 18 hours, proinflammatory cytokine levels in the supernatant were assessed by multiplex cytokine analysis.
Peripheral blood mononuclear cells (PBMCs) were isolated from the blood of healthy human donors by Ficoll cell separation. The PBMCs were seeded at a concentration of 2×10^6 cells/ml and treated for 1 hour at 37° C. with various concentrations of IMiD compounds or control DMSO (0.25%), before stimulation with 1 ng/ml LPS for 18 hours at 37° C.
Supernatant samples were subjected to multiplex cytokine analysis (Luminex IS100 instrument) to quantify secreted levels of IL-6, IL-8, IL1-beta (IL-1β), GM-CSF, MDC, MIP-1alpha (MIP-1α), MIP-1beta (MIP-1β) and TNF-alpha (TNF-α) (see e.g. FIGS. 7A-C).

[2] = test system: IL-6; test: LPS-induced IL-6 secretion from PBMCs, overnight pre-treatment (MSD); conditions: overnight 1000 nM lenalidomide, 100 nM pomalidomide, 10 nM iberdomide or 1 nM Compound 1; LPS 24 hours
Procedure: (§1) Fresh PBMCs isolated from healthy volunteers were seeded at a concentration of 1×10^6 cells/ml and treated with the indicated concentration of IMiD drugs/CELMoD agents or DMSO overnight before stimulation with the indicated concentration of LPS. After 24 hours, the cell culture media was collected and IL-6, TNF-alpha and IL1-beta levels in the supernatant were assessed using an MSD assay. ULOQ = Upper limit of quantification.
(§2) Fresh peripheral blood mononuclear cells (PBMCs) were isolated from the blood (buffy coat) of healthy human volunteers by Ficoll based cell separation. The isolated PBMCs were seeded at a concentration of 1×10^6 cells/ml and treated with 1000 nM lenalidomide, 100 nM pomalidomide, 10 nM iberdomide, 1 nM Compound 1 (CC-92480) or control DMSO, overnight (~17 hours). The next morning, the PBMCs were stimulated with various concentrations of LPS (Lipopolysaccharides from Escherichia coli O111:B4).
(§3) After 24 hours, the cell culture media was collected from the control and stimulated cells, spun down at 300 g for 5 minutes to remove cells and the supernatant was subjected to cytokine analysis to quantify secreted levels of IL-6, TNF-alpha (TNF-α) and IL1-beta (IL-1β) using an MSD assay (see e.g. FIGS. 8A-C).

[3] = test system: OPM-2 cells; test: CC-93269 mediated cytotoxicity assay with chronically stimulated T-cells, OPM-2 target cells (IncuCyte); conditions: anti-CD3/CD28 7 days with 100 nM pomalidomide, 10 nM iberdomide or 1 nM CC-92480; CC-93269 47 pM; E:T 1:2
Procedure: Cell growth kinetics of A) NCI-H929 and B) OPM-2 cells in CC-93269 (47 pM) cytotoxicity assays on the IncuCyte® S3 Live-Cell Analysis System. Healthy donor T-cells were used as effector cells with or without chronic stimulation with anti-CD3/CD28 (7 days) in the presence of DMSO or CM agents (100 nM Pomalidomide, 10 nM CC-220 or 1 nM CC-92480). T-cells and NCI-H929 cells were co-cultured at E:T ratios of 1:4 (NCI-H929) or 1:2 (OPM-2). […] In contrast, prior exposure to CM agents prevented functional TBMS cell exhaustion and CC-93269 activity was similar or better to those observed with freshly thawed T-cells. Values shown represent the mean ± standard deviation of AUC values of 2-3 replicates from the same experiment.
To evaluate the effects of Cereblon modulating (CM) agents on T-cell function after chronic stimulation (i.e. mimicking T cell exhaustion), CD3+ enriched healthy donor T-cells were stimulated with anti-CD3/CD28 in the presence of DMSO (control), 100 nM pomalidomide, 10 nM iberdomide (CC-220) or 1 nM Compound 1 (CC-92480) for 7 days. Prolonged and repetitive anti-CD3/CD28 stimulation of T-cells results in functional T-cell exhaustion in vitro.
The chronically stimulated T-cells were then used in CC-93269 mediated cytotoxicity assays with NCI-H929 or OPM-2 multiple myeloma (MM) target cells. The T-cells were washed to remove compounds, and mixed with fluorescently labelled MM cell lines (NCI-H929, OPM-2) at optimized effector-to-target (E:T) ratios (1:2 or 1:4) in the presence of fixed concentrations of CC-93269 (47 pM). Freshly thawed T-cells (i.e. non-exhausted T-cells) from the same donor were used as control effector cells. In this experimental cytotoxicity assay setup, the number of target cells was continuously monitored using the IncuCyte® S3 Live-Cell Analysis System for a minimum of 10 days. Cell culture supernatants were taken from wells from subsequent CC-93269 mediated cytotoxicity assays at 3 days after mixing with MM target cells. CD3+ T cells from 2 or 3 independent healthy donors were tested for each MM cell line.

[4] = test system: IL-1β; test: LPS-stimulated PBMC cytokine production, multiplex cytokine analysis: IL-1β; conditions: Homo sapiens, PBMC, PBMC 2×10^6 cells/ml, compound 1 hour, then 1 ng/ml LPS 18 hours
Procedure: (§4) Peripheral blood mononuclear cells (PBMCs) were isolated from the blood of healthy human donors by Ficoll cell separation. […] Supernatant samples were subjected to multiplex cytokine analysis (Luminex IS100 instrument) to quantify secreted levels of IL-6, IL-8, IL1-beta (IL-1β), GM-CSF, MDC, MIP-1alpha (MIP-1α), MIP-1beta (MIP-1β) and TNF-alpha (TNF-α) (see e.g. FIGS. 7A-C). IC50 (half maximal inhibitory concentration) values were calculated to measure the potency of each IMiD compound in inhibiting LPS-stimulated secretion of each cytokine (see Table 25).

[5] = test system: MIP-1β; test: LPS-stimulated PBMC cytokine production, multiplex cytokine analysis: MIP-1β; conditions: Homo sapiens; PBMC 2×10^6 cells/ml, compound 1 hour, then 1 ng/ml LPS 18 hours
Procedure: as §4

[6] = test system: IL1-beta; test: LPS-induced IL1-beta secretion from PBMCs, overnight pre-treatment (MSD); conditions: overnight 1000 nM lenalidomide, 100 nM pomalidomide, 10 nM iberdomide or 1 nM Compound 1; LPS 24 hours
Procedure: as §1, §2, §3

[7] = test system: GM-CSF; test: LPS-stimulated PBMC cytokine production, multiplex cytokine analysis: GM-CSF; conditions: Homo sapiens, PBMC, PBMC 2×10^6 cells/ml, compound 1 hour, then 1 ng/ml LPS 18 hours
Procedure: as §4

| IC50 [4] [µM] | IC50 [5] [µM] | IC50 [7] [µM] | SMILES | LPS-induced secretion of proinflammatory cytokines from PBMCs (effect in words) [1] | LPS-induced secretion of IL-6 from PBMCs [2] | cytolytic function of chronically stimulated T-cells in CC-93269-directed killing of OPM-2 cells [3] | LPS-induced secretion of IL-1β from PBMCs [6] |
| --- | --- | --- | --- | --- | --- | --- | --- |
| 0.047 | > 10 | 1.5 | Nc1cccc2c1C(=O)N(C1CCC(=O)NC1=O)C2=O (centres unmarked) [Pomalidomide, 4-amino-2-(2,6-dioxopiperidine-3-yl)isoindoline-1,3-dione] | inhibited | reduces | beneficial effects on the cytolytic function of T-cells | reduces |
| 0.39 | > 10 | > 10 | Nc1cccc2c1CN(C1CCC(=O)NC1=O)C2=O (centres unmarked) [Lenalidomide, 3-(4-amino-1-oxo-2,3-dihydro-1H-isoindol-2-yl) piperidine-2,6-dione] | inhibited | reduces | – | reduces |
| 0.00046 | > 10 | 0.0022 | O=C1CC[C@H](N2Cc3c(OCc4ccc(CN5CCOCC5)cc4)cccc3C2=O)C(=O)N1 [Iberdomide, (S)-3-(4-((4-(morpholinomethyl)benzyl)oxy)-1-oxoisoindolin-2-yl)piperidine-2,6-dione] | inhibited | reduces | beneficial effects on the cytolytic function of T-cells | reduces |
| – | – | – | N#Cc1ccc(N2CCN(Cc3ccc(COc4cccc5c4CN(C4CCC(=O)NC4=O)C5=O)cc3)CC2)c(F)c1 (stereo not drawn) [Compound 1, 4-(4-(4-(((2-(2,6-dioxopiperidin-3-yl)-1-oxoisoindolin-4-yl)oxy)methyl)benzyl)piperazin-l-yl)-3-fluorobenzonitrile] | – | reduces | beneficial effects on the cytolytic function of T-cells | reduces |
